Earlier results as cited in paper PMC7993281 (Clinical and Translational Science, 2020).

System: plasma GlcCer
Details: healthy subjects; cited from earlier work

SMILES: CC(C)(NC(=O)O[C@@H]1CN2CCC1CC2)c1csc(-c2ccc(F)cc2)n1 [venglustat]
- decrease of plasma GlcCer: up to 80%
